Experimental data taken from ChEMBL document CHEMBL3991601, “The target landscape of clinical kinase drugs” (Science, 2017).
Active and inactive are the calls of the source. Cut-off read from the data, not from the text of the source, for most assays here: actives have a measured Kd and inactives only a lower limit.

Key:
[1] = molecular target: Receptor-interacting serine/threonine-protein kinase 2 (Homo sapiens, UniProt O43353)
[2] = molecular target: Epithelial discoidin domain-containing receptor 1 (Homo sapiens, UniProt Q08345)
[3] = molecular target: T1, Succinate--CoA ligase [ADP-forming] subunit beta, mitochondrial (Homo sapiens, UniProt Q9P2R7)
T1 sequence (Q9P2R7 whole entry): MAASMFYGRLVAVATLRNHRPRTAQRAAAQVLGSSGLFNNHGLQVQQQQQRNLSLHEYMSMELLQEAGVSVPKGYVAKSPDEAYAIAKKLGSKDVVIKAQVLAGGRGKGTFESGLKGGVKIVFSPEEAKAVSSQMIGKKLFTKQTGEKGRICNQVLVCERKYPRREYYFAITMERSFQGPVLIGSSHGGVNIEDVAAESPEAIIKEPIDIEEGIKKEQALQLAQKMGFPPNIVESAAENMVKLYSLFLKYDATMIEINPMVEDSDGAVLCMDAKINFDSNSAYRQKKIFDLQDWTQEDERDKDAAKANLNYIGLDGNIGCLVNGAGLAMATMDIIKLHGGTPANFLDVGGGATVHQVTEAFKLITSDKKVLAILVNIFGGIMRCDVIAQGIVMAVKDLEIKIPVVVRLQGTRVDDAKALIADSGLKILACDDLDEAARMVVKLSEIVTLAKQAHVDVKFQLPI

[4] = molecular target: Calcium/calmodulin-dependent protein kinase type II subunit delta (Homo sapiens, UniProt Q13557)
[5] = molecular target: Serine/threonine-protein kinase PAK 2 (Homo sapiens, UniProt Q13177)
[6] = molecular target: T2, AarF domain-containing protein kinase 1 (Homo sapiens, UniProt Q86TW2)
T2 sequence (Q86TW2 whole entry): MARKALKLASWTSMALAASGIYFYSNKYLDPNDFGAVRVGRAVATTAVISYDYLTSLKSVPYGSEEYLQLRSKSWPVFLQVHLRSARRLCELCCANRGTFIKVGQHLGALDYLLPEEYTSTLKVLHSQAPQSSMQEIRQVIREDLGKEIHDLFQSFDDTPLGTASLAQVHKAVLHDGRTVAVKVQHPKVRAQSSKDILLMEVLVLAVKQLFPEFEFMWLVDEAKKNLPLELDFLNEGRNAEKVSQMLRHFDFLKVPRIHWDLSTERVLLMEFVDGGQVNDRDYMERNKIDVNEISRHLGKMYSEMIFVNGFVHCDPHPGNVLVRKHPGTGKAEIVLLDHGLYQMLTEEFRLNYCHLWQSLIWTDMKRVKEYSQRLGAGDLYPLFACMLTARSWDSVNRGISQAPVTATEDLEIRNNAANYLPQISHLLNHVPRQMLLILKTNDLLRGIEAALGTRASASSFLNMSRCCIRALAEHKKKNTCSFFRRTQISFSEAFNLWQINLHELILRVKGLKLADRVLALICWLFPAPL

[7] = molecular target: Tyrosine-protein kinase BTK (Homo sapiens, UniProt Q06187)
[8] = molecular target: T3, Serine/threonine-protein kinase PLK4 (Homo sapiens, UniProt O00444)
T3 sequence (O00444 whole entry): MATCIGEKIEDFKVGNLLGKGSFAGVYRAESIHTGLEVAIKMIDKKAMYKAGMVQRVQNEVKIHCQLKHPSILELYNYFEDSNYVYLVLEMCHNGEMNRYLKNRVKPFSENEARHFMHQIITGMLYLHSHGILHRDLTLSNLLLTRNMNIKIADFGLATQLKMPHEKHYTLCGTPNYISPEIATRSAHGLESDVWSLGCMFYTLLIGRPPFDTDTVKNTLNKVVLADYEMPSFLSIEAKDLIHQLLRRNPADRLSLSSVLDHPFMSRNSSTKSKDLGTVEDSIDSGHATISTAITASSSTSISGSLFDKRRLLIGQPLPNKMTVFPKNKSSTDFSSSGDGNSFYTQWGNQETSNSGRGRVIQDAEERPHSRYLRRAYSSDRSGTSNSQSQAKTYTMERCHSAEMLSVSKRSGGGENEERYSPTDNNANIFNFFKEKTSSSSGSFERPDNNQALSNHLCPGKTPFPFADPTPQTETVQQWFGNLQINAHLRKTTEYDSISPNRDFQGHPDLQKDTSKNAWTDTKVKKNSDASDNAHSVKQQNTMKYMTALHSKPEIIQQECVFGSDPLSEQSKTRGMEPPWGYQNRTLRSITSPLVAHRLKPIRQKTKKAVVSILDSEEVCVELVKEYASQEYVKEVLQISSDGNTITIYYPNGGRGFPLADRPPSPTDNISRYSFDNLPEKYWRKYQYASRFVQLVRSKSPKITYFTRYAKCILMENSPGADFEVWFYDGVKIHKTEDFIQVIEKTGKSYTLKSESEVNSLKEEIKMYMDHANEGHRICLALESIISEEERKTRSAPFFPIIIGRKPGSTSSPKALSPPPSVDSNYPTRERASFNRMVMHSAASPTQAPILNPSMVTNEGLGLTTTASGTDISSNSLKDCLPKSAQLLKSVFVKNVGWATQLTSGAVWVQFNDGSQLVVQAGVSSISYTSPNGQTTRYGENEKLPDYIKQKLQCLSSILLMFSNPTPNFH

Measured: Kd
Note: in the data inactive means no Kd found up to 30 µM.

Chain of Receptor-interacting serine/threonine-protein kinase 2 (O43353 whole entry, the tested form may be a part): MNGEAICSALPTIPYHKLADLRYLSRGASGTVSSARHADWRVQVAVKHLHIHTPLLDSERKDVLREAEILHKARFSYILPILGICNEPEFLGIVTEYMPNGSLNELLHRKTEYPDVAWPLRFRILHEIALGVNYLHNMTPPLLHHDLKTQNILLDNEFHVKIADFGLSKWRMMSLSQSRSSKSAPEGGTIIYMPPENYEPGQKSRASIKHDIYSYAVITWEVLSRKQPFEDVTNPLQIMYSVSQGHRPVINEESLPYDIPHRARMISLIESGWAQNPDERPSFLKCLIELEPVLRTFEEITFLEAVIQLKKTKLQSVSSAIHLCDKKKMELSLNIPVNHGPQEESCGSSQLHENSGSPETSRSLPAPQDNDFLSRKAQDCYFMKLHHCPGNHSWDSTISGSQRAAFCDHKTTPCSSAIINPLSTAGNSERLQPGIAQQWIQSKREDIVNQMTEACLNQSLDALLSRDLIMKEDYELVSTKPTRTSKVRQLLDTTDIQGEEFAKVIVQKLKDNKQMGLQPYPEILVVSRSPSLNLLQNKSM
Chain of Tyrosine-protein kinase BTK (Q06187 whole entry): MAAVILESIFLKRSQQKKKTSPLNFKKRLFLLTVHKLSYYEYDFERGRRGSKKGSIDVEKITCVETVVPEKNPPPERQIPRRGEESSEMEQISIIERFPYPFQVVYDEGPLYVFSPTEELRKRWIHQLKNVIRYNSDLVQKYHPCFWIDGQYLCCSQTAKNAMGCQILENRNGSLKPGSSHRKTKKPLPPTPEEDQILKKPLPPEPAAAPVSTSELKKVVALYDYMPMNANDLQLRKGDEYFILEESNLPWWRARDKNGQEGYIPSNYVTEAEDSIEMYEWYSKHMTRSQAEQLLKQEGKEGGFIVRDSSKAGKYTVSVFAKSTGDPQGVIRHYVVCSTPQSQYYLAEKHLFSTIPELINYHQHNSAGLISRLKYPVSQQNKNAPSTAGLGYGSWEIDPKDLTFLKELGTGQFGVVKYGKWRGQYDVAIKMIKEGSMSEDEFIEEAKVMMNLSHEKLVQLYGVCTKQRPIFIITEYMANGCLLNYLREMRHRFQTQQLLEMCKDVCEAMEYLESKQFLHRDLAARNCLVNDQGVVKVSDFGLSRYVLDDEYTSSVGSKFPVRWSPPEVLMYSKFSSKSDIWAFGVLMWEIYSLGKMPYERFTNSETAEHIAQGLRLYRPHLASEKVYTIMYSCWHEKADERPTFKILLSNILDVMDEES
Chain of Serine/threonine-protein kinase PAK 2 (Q13177 whole entry, the tested form may be a part): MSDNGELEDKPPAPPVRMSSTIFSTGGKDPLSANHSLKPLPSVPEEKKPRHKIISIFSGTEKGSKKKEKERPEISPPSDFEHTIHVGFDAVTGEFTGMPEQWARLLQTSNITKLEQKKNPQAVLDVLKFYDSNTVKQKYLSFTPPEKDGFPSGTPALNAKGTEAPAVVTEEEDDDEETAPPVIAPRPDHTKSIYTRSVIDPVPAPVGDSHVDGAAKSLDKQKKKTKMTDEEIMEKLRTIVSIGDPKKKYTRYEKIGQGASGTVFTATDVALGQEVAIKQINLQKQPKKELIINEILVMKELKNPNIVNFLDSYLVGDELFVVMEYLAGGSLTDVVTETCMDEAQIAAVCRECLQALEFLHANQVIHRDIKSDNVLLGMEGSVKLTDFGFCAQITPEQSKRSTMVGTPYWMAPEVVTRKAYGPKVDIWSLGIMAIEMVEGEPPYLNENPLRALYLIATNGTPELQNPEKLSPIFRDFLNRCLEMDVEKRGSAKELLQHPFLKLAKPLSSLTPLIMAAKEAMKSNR
Chain of Calcium/calmodulin-dependent protein kinase type II subunit delta (Q13557 whole entry): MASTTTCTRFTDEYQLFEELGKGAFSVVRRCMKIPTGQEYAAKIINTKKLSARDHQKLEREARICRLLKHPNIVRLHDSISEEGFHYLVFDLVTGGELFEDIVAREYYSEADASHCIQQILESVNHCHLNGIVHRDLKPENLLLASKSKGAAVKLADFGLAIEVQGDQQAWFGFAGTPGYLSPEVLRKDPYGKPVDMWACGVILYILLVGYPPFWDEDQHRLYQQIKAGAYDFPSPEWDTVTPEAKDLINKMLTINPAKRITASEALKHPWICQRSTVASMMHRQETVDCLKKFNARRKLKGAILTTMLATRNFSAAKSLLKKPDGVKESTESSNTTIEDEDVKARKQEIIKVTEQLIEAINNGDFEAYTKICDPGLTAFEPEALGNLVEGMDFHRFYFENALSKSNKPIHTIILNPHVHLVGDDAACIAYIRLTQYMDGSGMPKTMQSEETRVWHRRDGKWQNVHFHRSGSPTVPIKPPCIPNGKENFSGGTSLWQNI
Chain of Epithelial discoidin domain-containing receptor 1 (Q08345 whole entry, the tested form may be a part): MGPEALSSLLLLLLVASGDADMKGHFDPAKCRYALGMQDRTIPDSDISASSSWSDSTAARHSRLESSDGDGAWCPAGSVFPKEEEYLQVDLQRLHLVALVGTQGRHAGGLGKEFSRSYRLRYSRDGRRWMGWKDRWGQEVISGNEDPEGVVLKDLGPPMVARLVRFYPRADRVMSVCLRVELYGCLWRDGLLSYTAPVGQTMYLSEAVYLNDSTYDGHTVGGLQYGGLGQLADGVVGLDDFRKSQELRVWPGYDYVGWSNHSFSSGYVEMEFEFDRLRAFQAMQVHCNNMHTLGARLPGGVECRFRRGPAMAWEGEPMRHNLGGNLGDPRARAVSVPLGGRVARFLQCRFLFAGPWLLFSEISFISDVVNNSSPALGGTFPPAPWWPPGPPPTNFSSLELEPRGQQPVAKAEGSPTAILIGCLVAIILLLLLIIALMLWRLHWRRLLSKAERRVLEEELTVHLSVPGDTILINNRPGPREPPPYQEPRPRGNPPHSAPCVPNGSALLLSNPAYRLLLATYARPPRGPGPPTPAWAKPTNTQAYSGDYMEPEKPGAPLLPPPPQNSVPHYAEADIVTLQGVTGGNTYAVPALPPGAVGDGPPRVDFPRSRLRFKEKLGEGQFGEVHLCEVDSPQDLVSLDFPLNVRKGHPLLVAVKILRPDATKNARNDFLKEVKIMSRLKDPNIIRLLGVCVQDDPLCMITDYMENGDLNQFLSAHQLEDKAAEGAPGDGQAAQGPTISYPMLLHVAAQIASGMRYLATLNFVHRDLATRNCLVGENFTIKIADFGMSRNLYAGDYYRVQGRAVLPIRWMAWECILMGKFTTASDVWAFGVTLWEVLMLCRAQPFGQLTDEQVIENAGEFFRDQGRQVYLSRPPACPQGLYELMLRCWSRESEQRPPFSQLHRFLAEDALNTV

COc1cc(Nc2ncc(F)c(Nc3ccc4c(n3)N(COP(=O)(O)O)C(=O)C(C)(C)O4)n2)cc(OC)c1OC [FOSTAMATINIB]
active: [6] 1.07 µM | [8] 0.57 µM
inactive: [1] > 30 µM | [2] > 30 µM | [3] > 30 µM | [4] > 30 µM | [5] > 30 µM | [7] > 30 µM

COc1ccc2c(OCc3nnc4ccc(-c5ccccc5)nn34)ccnc2c1 [AMG-208]
inactive: [1] > 30 µM | [2] > 30 µM | [3] > 30 µM | [4] > 30 µM | [5] > 30 µM | [6] > 30 µM | [7] > 30 µM | [8] > 30 µM

CC(C)CC(=O)Nc1[nH]nc2c1CN(C(=O)C1CCN(C)CC1)C2(C)C [PHA-793887]
inactive: [1] > 30 µM | [2] > 30 µM | [3] > 30 µM | [4] > 30 µM | [5] > 30 µM | [6] > 30 µM | [7] > 30 µM | [8] > 30 µM

O=c1[nH]c([C@@H]2CCCN2)nc2c1oc1ccc(Cl)cc12
inactive: [1] > 30 µM | [2] > 30 µM | [3] > 30 µM | [4] > 30 µM | [5] > 30 µM | [6] > 30 µM | [7] > 30 µM | [8] > 30 µM

COCCN1CCN(Cc2ccc(-c3n[nH]c4c3C(=O)c3c(NC(=O)NN5CCOCC5)cccc3-4)cc2)CC1 [RGB-286638]
inactive: [1] > 30 µM | [2] > 30 µM | [3] > 30 µM | [4] > 30 µM | [5] > 30 µM | [6] > 30 µM | [7] > 30 µM | [8] > 30 µM

CCN1CCN(Cc2ccc(Nc3ncc(F)c(-c4cc(F)c5nc(C)n(C(C)C)c5c4)n3)nc2)CC1 [ABEMACICLIB]
inactive: [1] > 30 µM | [2] > 30 µM | [3] > 30 µM | [5] > 30 µM | [7] > 30 µM | [8] > 30 µM
active: [4] 0.019 µM | [6] 0.04 µM

COc1cccc(Nc2ncnn3ccc(CN4CC[C@@H](N)[C@H](O)C4)c23)c1 [BMS-690514]
inactive: [1] > 30 µM | [2] > 30 µM | [3] > 30 µM | [5] > 30 µM | [6] > 30 µM | [7] > 30 µM | [8] > 30 µM
active: [4] 0.703 µM

C=CC(=O)Nc1cccc(Nc2nc(Nc3ccc(N4CCN(C(C)=O)CC4)cc3OC)ncc2C(F)(F)F)c1 [ROCILETINIB]
inactive: [1] > 30 µM | [2] > 30 µM | [3] > 30 µM | [4] > 30 µM | [5] > 30 µM | [6] > 30 µM | [8] > 30 µM
active: [7] 0.547 µM
